Results published in the NIST ThermoML archive (doi:10.1021/je700152c).

Experiment: molar heat capacity at saturation pressure

CCCCn1cc[n+](C)c1.Cc1ccc(S(=O)(=O)[O-])cc1 [1-butyl-3-methylimidazolium tosylate]
Conditions	molar heat capacity [J/K/mol]
5.19 K, Crystal 2	2.822
5.39 K, Crystal 2	3.132
5.69 K, Crystal 2	3.579
5.99 K, Crystal 2	4.042
6.33 K, Crystal 2	4.588
6.71 K, Crystal 2	5.224
7.1 K, Crystal 2	5.913
7.49 K, Crystal 2	6.618
7.88 K, Crystal 2	7.372
8.27 K, Crystal 2	8.155
8.67 K, Crystal 2	8.98
9.06 K, Crystal 2	9.831
9.46 K, Crystal 2	10.7
9.86 K, Crystal 2	11.58
10.37 K, Crystal 2	12.77
10.99 K, Crystal 2	14.2
11.62 K, Crystal 2	15.75
12.24 K, Crystal 2	17.23
12.87 K, Crystal 2	18.81
13.5 K, Crystal 2	20.4
14.13 K, Crystal 2	22.01
14.77 K, Crystal 2	23.69
15.52 K, Crystal 2	25.71
16.38 K, Crystal 2	28.11
17.25 K, Crystal 2	30.43
18.11 K, Crystal 2	32.69
18.98 K, Crystal 2	34.95
19.85 K, Crystal 2	37.28
21.02 K, Crystal 2	40.42
22.47 K, Crystal 2	44.36
23.94 K, Crystal 2	48.42
25.4 K, Crystal 2	52.37
26.86 K, Crystal 2	56.28
27.91 K, Crystal 2	59.01
29.13 K, Crystal 2	62.18
30.61 K, Crystal 2	65.96
32.24 K, Crystal 2	70.12
34.04 K, Crystal 2	74.47
35.85 K, Crystal 2	78.78
37.65 K, Crystal 2	82.79
39.46 K, Crystal 2	86.82
41.36 K, Crystal 2	90.86
43.36 K, Crystal 2	95.05
45.37 K, Crystal 2	99.18
47.37 K, Crystal 2	103.21
49.38 K, Crystal 2	107.12
51.39 K, Crystal 2	110.88
53.4 K, Crystal 2	114.57
55.41 K, Crystal 2	118.11
57.43 K, Crystal 2	121.56
59.46 K, Crystal 2	124.97
61.48 K, Crystal 2	128.2
63.5 K, Crystal 2	131.49
65.48 K, Crystal 2	134.6
67.5 K, Crystal 2	137.79
69.52 K, Crystal 2	140.83
71.55 K, Crystal 2	143.85
73.58 K, Crystal 2	146.89
75.61 K, Crystal 2	149.84
77.64 K, Crystal 2	152.66
78.3 K, Crystal 2	153.84
78.41 K, Crystal 2	154.03
78.68 K, Metastable crystal	155.18
79.68 K, Crystal 2	155.55
80.29 K, Crystal 2	156.42
80.4 K, Crystal 2	156.6
80.63 K, Crystal 2	156.82
80.67 K, Metastable crystal	157.91
81.72 K, Crystal 2	158.34
82.14 K, Crystal 2	158.9
82.25 K, Crystal 2	158.9
82.53 K, Metastable crystal	160.36
82.63 K, Crystal 2	159.37
83.76 K, Crystal 2	161.26
84.01 K, Crystal 2	161.35
84.11 K, Crystal 2	161.51
84.39 K, Metastable crystal	163.15
84.49 K, Crystal 2	161.88
85.88 K, Crystal 2	163.77
85.98 K, Crystal 2	164.02
86.26 K, Metastable crystal	165.85
86.36 K, Crystal 2	164.39
87.76 K, Crystal 2	166.29
87.86 K, Crystal 2	166.47
88.14 K, Metastable crystal	168.4
88.24 K, Crystal 2	166.85
89.65 K, Crystal 2	168.77
89.74 K, Crystal 2	168.83
90.02 K, Metastable crystal	171.1
90.12 K, Crystal 2	169.39
91.54 K, Crystal 2	171.25
91.63 K, Crystal 2	171.32
91.92 K, Metastable crystal	173.77
92.02 K, Crystal 2	171.84
93.45 K, Crystal 2	173.71
93.54 K, Crystal 2	173.8
93.82 K, Metastable crystal	176.53
93.92 K, Crystal 2	174.27
95.36 K, Crystal 2	176.16
95.45 K, Crystal 2	176.25
95.72 K, Metastable crystal	179.17
95.83 K, Crystal 2	176.69
97.28 K, Crystal 2	178.64
97.37 K, Crystal 2	178.7
97.64 K, Metastable crystal	181.78
97.75 K, Crystal 2	179.08
99.21 K, Crystal 2	181.03
99.29 K, Crystal 2	181.06
99.55 K, Metastable crystal	184.48
99.67 K, Crystal 2	181.44
101.08 K, Crystal 2	183.3
101.16 K, Crystal 2	183.36
101.42 K, Metastable crystal	187.02
101.54 K, Crystal 2	183.8
102.89 K, Crystal 2	185.56
102.98 K, Crystal 2	185.56
103.22 K, Metastable crystal	189.6
103.36 K, Crystal 2	186.06
104.71 K, Crystal 2	187.86
104.79 K, Crystal 2	187.86
105.03 K, Metastable crystal	192.05
105.18 K, Crystal 2	188.27
106.53 K, Crystal 2	190.03
106.61 K, Crystal 2	190.07
106.84 K, Metastable crystal	194.54
107 K, Crystal 2	190.5
108.37 K, Crystal 2	192.21
108.44 K, Crystal 2	192.24
108.66 K, Metastable crystal	197.08
108.83 K, Crystal 2	192.7
110.2 K, Crystal 2	194.41
110.27 K, Crystal 2	194.41
110.48 K, Metastable crystal	199.56
110.67 K, Crystal 2	194.88
112.03 K, Crystal 2	196.58
112.1 K, Crystal 2	196.52
112.31 K, Metastable crystal	201.92
112.5 K, Crystal 2	197.14
113.87 K, Crystal 2	198.73
113.94 K, Crystal 2	198.82
114.13 K, Metastable crystal	204.5
114.34 K, Crystal 2	199.29
115.71 K, Crystal 2	200.99
115.78 K, Crystal 2	201.09
115.96 K, Metastable crystal	207.01
116.18 K, Crystal 2	201.52
117.56 K, Crystal 2	203.23
117.62 K, Crystal 2	203.17
117.79 K, Metastable crystal	209.47
118.02 K, Crystal 2	203.66
119.41 K, Crystal 2	205.4
119.46 K, Crystal 2	205.31
119.62 K, Metastable crystal	212.17
119.87 K, Crystal 2	205.87
121.26 K, Crystal 2	207.48
121.3 K, Crystal 2	207.51
121.45 K, Metastable crystal	214.65
121.71 K, Crystal 2	208.04
123.11 K, Crystal 2	209.71
123.16 K, Crystal 2	209.78
123.28 K, Metastable crystal	217.2
123.56 K, Crystal 2	210.24
124.97 K, Crystal 2	211.95
